Reference: patent US8481734B2, “Pyrazine derivatives and uses thereof, including in medical imaging and visualization applications” (Medibeacon Development LLC, priority 2008, dated 2013)

Key:
[1] = Comparison of clearance rates with an iothalamate reference standard (FIG. 3); format: in vivo, Spraque-Dawley rats; conditions: Sprague-Dawley rats; iothalamate five rats, compound 18 six rats; FIG. 3 in milliliters per minute
Experimental: FIG. 3 provides a bar graph comparison of the clearance rates of an iothalamate reference standard and compound 18. Spraque-Dawley rats were again used as animal models for studying the clearance rates. Iothalamate clearance rates were measured in five rats, whereas clearance rates for compound 18 were measured in six rats. The clearance rates are expressed in FIG. 3 in terms of milliliters per minute.

[2] = Clearance curve of compound 18 in rats, monitored by fluorescence (RFUs) over time (FIG. 2); format: in vivo; conditions: Sprague-Dawley rats, i.v. 1 ml of 2 mmol solution in PBS, approx. 6 μmol/kg, four rats, fluorescence (RFU)
Experimental: Four Sprague-Dawley rats were used to obtain the experimental results depicted in FIG. 2, with each of the four lines of the graph representing data obtained from an individual rat. The rats were injected intravenously with 1 ml of a 2 mmol solution of compound 18 in phosphate-buffered saline CBS), giving a final concentration of compound 18 in each animal of approximately 6 μmol/kg. The presence of compound 18 in each of the animals was monitored over time and measured in Relative Fluorescence Units (RFUs). The clearance curve in FIG. 2 provides RFUs over time for each of the four rats. […] The clearance rate then began to level, with complete clearance of compound 18 occurring at approximately 6000 minutes.

[3] = Excitation and emission wavelengths; format: physicochemical
Source text: Compound 18, above, is a longer wavelength compound (excitation ˜500 nm, emission 600 nm orange). To achieve the red shift in both excitation and emission wavelengths, electron donation into the ring was increased by alkyl substitution on the pyrazine ring nitrogens. The synthetic strategy for these longer wavelength analogues involves functionalizing the carboxyls first through amide chemistry described above followed by reductive amination of the pyrazine amino groups. Thus the synthesis of compound 18, above, is presented below. MP-3064 was coupled with Boc-ethylenediamine using the EDC method to afford MP-3183. This material was then converted to MP-3216 by reductive amination using Boc-2-aminoacetaldehyde and sodium triacetoxyborohydride. MP-3216 was purified by flash chromatography and deprotected with TFA to afford the corresponding tetramine salt. This material was then acylated with NHS-m-dPEG12 and purified by HPLC to afford compound 18: […]

clearance rate, compound 18 compared with iothalamate [1]	time of complete clearance [2]	excitation wavelength [3] [nm]	emission wavelength ([3]; orange) [nm]	SMILES
virtually the same	–	–	–	CNC(=O)c1c(I)c(NC(C)=O)c(I)c(C(=O)O)c1I [iothalamate, reference compound]
virtually the same	approximately 6000 minutes	~500	600	COCCOCCOCCOCCOCCOCCOCCOCCOCCOCCOCCOCCC(=O)NCCNC(=O)c1nc(NCCNC(=O)CCOCCOCCOCCOCCOCCOCCOCCOCCOCCOCCOCCOC)c(C(=O)NCCNC(=O)CCOCCOCCOCCOCCOCCOCCOCCOCCOCCOCCOCCOC)nc1NCCNC(=O)CCOCCOCCOCCOCCOCCOCCOCCOCCOCCOCCOCCOC [compound 18, 3,6-Bis(38-oxo-2,5,8,11,14,17,20,23,26,29,32,35-dodecaoxa-39-azahentetracontan-41-ylamino)-N^2,N^5-bis(38-oxo-2,5,8,11,14,17,20,23,26,29,32,35-dodecaoxa-39-azahentetracontan-41-yl)pyrazine-2,5-dicarboxamide]
